Reference: ChEMBL document CHEMBL3112468, “δ-Thiolactones as prodrugs of thiol-based glutamate carboxypeptidase II (GCPII) inhibitors” (J Med Chem, 2014)
Active and inactive are the calls of the source. The calls are words filed in the database; no cut-off is given here.

Legend:
Plasma = assay: Prodrug conversion in rat plasma assessed as 2-MPPA formation at 10 mg/kg, po after 0.25 to 3 hrs; format: ADME, organism-based; parameters: dose 10 mg/kg, route oral; settings: in vivo
[1] = molecular target: Glutamate carboxypeptidase 2 (Homo sapiens, UniProt Q04609); assay: Inhibition of human recombinant GCP2 using N-acetyl-L-aspartyl[3H]-L-glutamate as substrate
Rattus norvegicus = assay: Antinociceptive effect in rat chronic constriction injury model of neuropathic pain assessed as reduction of CCI-induced thermal hyperalgesia at 10 mg/kg/day, po after 11 to 18 days relative to vehicle-treated control; format: functional, organism-based
[2] = Prodrug conversion in simulated gastric fluid at pH 1.2 after 48 hrs by HPLC analysis; format: ADME; settings: simulated gi fluid, pH 1.2, 48 h
Liver microsome [3] = assay: Prodrug conversion in rat liver microsomes assessed as 2-MPPA formation at 10 uM by LC/MS/MS analysis; format: ADME; settings: TDE = time-dependent effect
Liver microsome [4] = assay: Prodrug conversion in rat liver microsomes at 10 uM after 1.5 hrs by LC/MS/MS analysis; format: ADME

Glutamate carboxypeptidase 2, sequence (Q04609 whole entry): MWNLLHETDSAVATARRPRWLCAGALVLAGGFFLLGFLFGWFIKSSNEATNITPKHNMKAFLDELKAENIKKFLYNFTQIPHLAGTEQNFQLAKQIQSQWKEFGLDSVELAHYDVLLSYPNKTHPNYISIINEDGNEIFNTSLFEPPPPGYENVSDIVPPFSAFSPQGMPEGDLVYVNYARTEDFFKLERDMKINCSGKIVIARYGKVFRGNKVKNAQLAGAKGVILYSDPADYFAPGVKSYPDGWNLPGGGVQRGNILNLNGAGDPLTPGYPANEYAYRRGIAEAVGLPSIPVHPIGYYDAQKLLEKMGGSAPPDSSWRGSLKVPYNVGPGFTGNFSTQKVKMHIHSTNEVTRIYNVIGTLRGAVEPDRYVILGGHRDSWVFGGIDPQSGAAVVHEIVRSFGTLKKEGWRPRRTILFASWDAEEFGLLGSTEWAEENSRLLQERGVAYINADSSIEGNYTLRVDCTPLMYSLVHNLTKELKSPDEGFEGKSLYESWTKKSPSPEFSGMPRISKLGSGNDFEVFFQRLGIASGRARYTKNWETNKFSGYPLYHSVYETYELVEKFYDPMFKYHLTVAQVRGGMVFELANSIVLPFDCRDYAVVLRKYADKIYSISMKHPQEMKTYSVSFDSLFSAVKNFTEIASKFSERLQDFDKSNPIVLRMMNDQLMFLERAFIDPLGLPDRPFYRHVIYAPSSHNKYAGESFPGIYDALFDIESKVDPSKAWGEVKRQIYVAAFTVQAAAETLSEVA

| Drug metabolism (Plasma) | IC50 [1] | Stability [2] | Activity (Liver microsome [3]) | Stability (Liver microsome [4]) | Compound | Activity (Rattus norvegicus) |
| --- | --- | --- | --- | --- | --- | --- |
| Active | 2 µM | Stable | – | – | O=C(O)CCC1CCCSC1=O (racemic) | Active |
| – | – | – | tde | – | O=C(O)CCC(CCCS)C(=O)O (stereo not drawn) | – |
| – | 20 µM | Stable | – | Stable | O=C(O)c1cccc(-c2cccc3c2C(=O)SCC3)c1 | – |
